We go through 1 compound from US10435399B2, “HDAC6 inhibitory heterocyclic compound” (TAKEDA PHARMACEUTICAL COMPANY LIMITED, priority 2017, dated 2019).

One assay has as its target T1, HDAC6 enzyme (Homo sapiens, UniProt Q9UBN7).
T1 construct: transducing full length HDAC6 gene into Sf-9 insect cells; GST; purchased SignalChem; host or cells: Sf-9 insect cells
T1 sequence (Q9UBN7 1-1215): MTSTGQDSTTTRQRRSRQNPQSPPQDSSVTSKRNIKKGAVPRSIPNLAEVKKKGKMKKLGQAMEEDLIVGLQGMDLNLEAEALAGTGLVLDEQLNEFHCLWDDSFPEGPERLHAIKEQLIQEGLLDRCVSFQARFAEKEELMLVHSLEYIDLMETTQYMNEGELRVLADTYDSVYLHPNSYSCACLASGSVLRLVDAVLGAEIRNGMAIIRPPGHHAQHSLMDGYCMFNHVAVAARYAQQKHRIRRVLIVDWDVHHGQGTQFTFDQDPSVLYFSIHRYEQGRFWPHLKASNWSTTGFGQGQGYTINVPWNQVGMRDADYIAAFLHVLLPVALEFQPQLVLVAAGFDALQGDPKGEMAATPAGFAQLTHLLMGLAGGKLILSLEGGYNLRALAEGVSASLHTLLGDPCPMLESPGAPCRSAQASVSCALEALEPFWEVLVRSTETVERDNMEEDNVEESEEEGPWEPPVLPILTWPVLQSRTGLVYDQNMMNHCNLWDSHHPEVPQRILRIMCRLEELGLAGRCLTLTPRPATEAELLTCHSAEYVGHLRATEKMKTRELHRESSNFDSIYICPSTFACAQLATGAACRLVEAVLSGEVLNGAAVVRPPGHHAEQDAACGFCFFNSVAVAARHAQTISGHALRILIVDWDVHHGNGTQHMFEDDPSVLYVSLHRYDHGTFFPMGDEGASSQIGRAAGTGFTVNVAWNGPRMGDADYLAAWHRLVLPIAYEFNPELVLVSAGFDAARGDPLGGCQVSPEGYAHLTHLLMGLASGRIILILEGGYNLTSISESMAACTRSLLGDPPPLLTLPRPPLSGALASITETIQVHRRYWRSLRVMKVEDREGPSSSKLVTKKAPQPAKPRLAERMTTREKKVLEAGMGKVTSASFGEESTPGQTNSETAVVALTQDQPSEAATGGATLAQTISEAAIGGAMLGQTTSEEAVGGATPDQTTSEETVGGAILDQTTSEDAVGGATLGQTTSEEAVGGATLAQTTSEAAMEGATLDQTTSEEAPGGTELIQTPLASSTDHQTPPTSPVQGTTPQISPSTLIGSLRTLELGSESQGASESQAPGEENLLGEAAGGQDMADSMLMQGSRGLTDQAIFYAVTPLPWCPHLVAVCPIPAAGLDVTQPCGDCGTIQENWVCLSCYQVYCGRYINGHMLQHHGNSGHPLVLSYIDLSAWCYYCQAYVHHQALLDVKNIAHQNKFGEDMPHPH
Briefly: HDAC6 enzyme inhibitory activity (HDAC-Glo I/II Assay kit). Format: biochemical. The conditions noted are these: 10 μM; wells without enzyme = 100% inhibition. A digest of the protocol: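 Sf-9-derived GST-purified full-length HDAC6 + cpd, 60 min RT, 24 mM Tris pH 7.5/0.6 mM glutathione/0.01% Tween-20; add HDAC-Glo substrate-developer, 20 min RT; luminescence. No-enzyme = 100% inhibition.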

Assay [1] relates to acetylated tubulin in brain (hippocampus). Briefly: Increase in acetylated tubulin in brain (hippocampus ELISA). Format: in vivo, C57BL/6J mouse. To be noted: mouse hippocampus, oral 10 mg/kg, 4 h after administration, vs vehicle. As to the method: Increase in Acetylated Tubulin in Brain
A drug was suspended in 0.5% methyl cellulose to prepare a suspension for administration, having a concentration shown in Table 3. The suspension was orally administered into 8 to […] male C57BL/6J mouse, and after the passage of the time shown in Table 3, the brain was taken out, and hippocampus was obtained. The hippocampus was homogenized under RIPA extract (Wako) to which protease inhibitor (Thermo) and phosphatase inhibitor (Thermo) were added, and centrifuged in 15,000 g for 15 min to prepare a protein extract. The acetylated tubulin and total tubulin in the extract were detected by the following ELISA method. Tubulin antibody (Sigma) was immobilized on 96-well plate (Microlite2+, Thermo), and the plate was stored at 4° C. […] The plate was washed, HRP substrate was added thereto, and the luminescence was measured using a plate reader. The acetylated tubulin and total tubulin were quantified from logistics curve based on dilution series using the mouse hippocampus tissue extract, and the acetylated tubulin relative to total tubulin was calculated, and evaluated as an relative tubulin acetylation level. […] After F test for vehicle group and drug group, the significant difference between the two groups was analyzed by Student t-test or Welch test (indicated as * p<0.05, ** p<0.01). […]

`O=C1c2cc(-c3nnc(C(F)F)o3)cnc2CN1[C@@H]1CCCC[C@H]1NC(=O)C(F)(F)C(F)(F)F` [Example 489, N-((1R,2R)-2-(3-(5-(difluoromethyl)-1,3,4-oxadiazol-2-yl)-5-oxo-5,7-dihydro-6H-pyrrolo[3,4-b]pyridin-6-yl)cyclohexyl)-2,2,3,3,3-pentafluoropropanamide]: the “HDAC6 inhibitory rate (%) (10 μM)” value on HDAC6 enzyme is 99%. In addition, in assay [1], the “relative tubulin acetylation level (acetylated tubulin relative to total tubulin)” value is “increase in significant tubulin acetylation level was observed”.
